Each block holds one molecule with its values, some of them ahead of it.
Legend:
[1] = Blood glucose in unfasted CRE-luc mice; assay type: in vivo, mouse; details: line 11, STZ 200 mpk, ip, unfasted mice
Protocol: The induction of CRE-Luc by AVE0010 is likely beta-cell-specific (FIG. 31). Animals were treated as described in FIG. 30. Blood glucose levels were measured by tail vein nicking on unfasted mice. Glucose levels were read on a Bayer glucometer. Glucose levels are shown as mg glucose/[…]. Fold induction is the luciferase bioimaging levels of AVE10 dosing versus the baseline signals. Blood glucose levels (BG) were increased by STZ (upper left panel). Non-fasting BG levels were reduced by AVE0010 (0.1 mg/kg, sc).

beta-cell = assay: Effect of beta-cell toxin on induction of CRE-Luc by AVE0010; assay type: in vivo, mouse; details: line 11, STZ 200 mpk, ip, imaged four days later after AVE0010
DP = molecular target: T1, DP (Mus musculus, UniProt P70263); assay: Isolated CD4+ T cells CreLuc luciferase assay, DP agonist; assay type: cell-based; details: line 64 CD4+ T cells, anti CD3 24 hours, 10 μM, 4 hours
T1 construct: Primary microglia were isolated from the cortices from P2 mice; endogenous in cells; host or cells: whole splenocytes, CD4+ T cells and primary microglia (P2 cortices), CreLuc mouse line 64
T1 sequence (P70263 1-357): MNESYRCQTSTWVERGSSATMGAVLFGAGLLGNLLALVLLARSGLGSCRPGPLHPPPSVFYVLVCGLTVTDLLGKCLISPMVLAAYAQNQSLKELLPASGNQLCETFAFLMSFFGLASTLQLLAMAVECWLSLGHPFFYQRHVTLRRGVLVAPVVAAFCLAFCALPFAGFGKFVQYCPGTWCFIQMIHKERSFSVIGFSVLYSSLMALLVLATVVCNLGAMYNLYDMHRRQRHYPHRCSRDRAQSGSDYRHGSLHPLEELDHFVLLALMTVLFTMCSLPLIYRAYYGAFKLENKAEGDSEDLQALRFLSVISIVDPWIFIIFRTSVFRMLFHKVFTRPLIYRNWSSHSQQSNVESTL
Protocol: The effects of different Gs agonists on luciferase levels in anti CD3 stimulated CD4+ T cells isolated from CreLuc mice was studied (FIG. 19). Whole splenocyte populations were prepared by mechanical disruption. CD4+ cells were then isolated by MACS Magnetic Separation with Positive Selection (Miltenyi Biotec cat#130-049-201). The cells, 1.5×10^5 per well, were then plated on 96 well white opaque plates and then stimulated with anti CD3 antibodies (BD Pharmingen cat#553058). After 24 hours, compounds were added for an additional 4 hours. Gs agonists for DP (BW245C), EP2 (EX00000173A) and ADβR (isoproterenol) were all used at 10 μM. Forskolin 5 μM, and rolipram 10 μM. BrightGlo (Promega, Madison, Wis., cat#E2610) was added and the assay was read on the TopCount. A 25-fold increase is observed in cells treated with forskolin and rolipram. […] The transgene was responsive to specific Gs agonists as well as general modulators of the cAMP pathway.

DP1 receptor = molecular target: T2, DP1 receptor (Mus musculus, UniProt P70263); assay: Primary microglia CreLuc luciferase assay, DP agonist; assay type: cell-based; details: 10 μM, 4 hours
T2 construct: Primary microglia were isolated from the cortices from P2 mice; endogenous in cells; host or cells: whole splenocytes, CD4+ T cells and primary microglia (P2 cortices), CreLuc mouse line 64
T2 sequence (P70263 1-357): T1 sequence (P70263 1-357)
Protocol: (§1) Induction of luciferase expression in microglia isolated from CreLuc mice by the general cAMP activators, forskolin and rolipram, and an agonist for the DP receptor, BW245C was examined (FIG. 22). Primary microglia were isolated from the cortices from P2 mice in media consisting of DMEM (GIBCO Cat#11995), 10% FBS (GIBCO Cat#16140) and 1% Penicillin-Streptomycin 100× (GIBCO Cat#15140). The cells were plated in 96 well format on Poly-D-Lysine-coated plates. Cells were either left untreated or stimulated for 2 hours with 100 ng/ml LPS. Compounds were then added for an additional 4 hours before the Bright Glo assay was run. The compounds used were 5 μM forskolin, 10 μM rolipram or the combination of the two, or the Gs agonist for the DP1 receptor, BW245C at 10 μM. In unstimulated conditions, microglia are unresponsive to general cAMP modulators and the specific Gs agonist for the DP receptor. However, when microglia were stimulated with LPS, the cells became responsive to forskolin and BW245C.

[2] = molecular target: T3, prostaglandin D2 receptor 1 (DP1) (Mus musculus, UniProt P70263); assay: Whole splenocytes CreLuc luciferase assay, DP1 agonist; assay type: cell-based; details: line 64 whole splenocytes, 10 uM, 4 hours
T3 construct: Primary microglia were isolated from the cortices from P2 mice; endogenous in cells; host or cells: whole splenocytes, CD4+ T cells and primary microglia (P2 cortices), CreLuc mouse line 64
T3 sequence (P70263 1-357): T1 sequence (P70263 1-357)
Protocol: Whole splenocyte preps isolated from CreLuc mice were used to show the effects of general cAMP inducers such as forskolin and rolipram, as well as Gs agonists on luciferase expression (FIG. 16). Spleens were harvested from the animals in 1×HBSS (Invitrogen, Carlsbad, Calif., cat#14025). The cells were then isolated by mechanically disrupting the spleen capsule using the end of a 5 ml syringe in 5 mls of D-PBS (Invitrogen, Carlsbad, Calif., cat#14190). The cell suspension was then passed through a 70 um strainer into a 50 ml conical tube. The cells were then spun down at 800 rpm, then resuspended and incubated for 6 minutes at room temperature in 5 ml of 1× Pharm Lyse solution (BD BioSciences, cat#555899). Cells were then washed by adding 28 mls of media consisting of RPMI 1640 (Invitrogen, Carlsbad, Calif., cat#11875), 10% FCS (Invitrogen, Carlsbad, Calif., cat#16000), 1% pen/strep (Invitrogen, Carlsbad, Calif., cat#15070) and 0.1% β-mercaptoethanol (Invitrogen, Carlsbad, Calif., cat#21985). Cells were diluted to 2×10^6/ml, and 100 ul of the cells were plated per well in a 96 well white opaque plate. Half of the cells were stimulated for 24 hours with anti-CD3 antibody (BD Pharmingen, cat#553058), the other half were untreated. […] After 4 hours, 100 μl of BrightGlo (Promega, Madison, Wis., cat#E2610) and the assay was read on a TopCount luminometer. […]

[3] = test system: cAMP (CreLuc luciferase reporter); assay: Primary microglia CreLuc luciferase assay, general cAMP activators; assay type: cell-based, mouse; details: line 64, unstimulated, 5 μM forskolin, 10 μM rolipram, 4 hours
Protocol: as §1

plasma cAMP [4] = details: Balb/c mice, 10 mg/kg, blood harvested after 20 minutes; cited from earlier work
plasma cAMP [5] = assay: In vivo stimulation of cAMP in plasma (ELISA); design: species or system FVB/Tac mice; details: FVB/Tac females, i.p., forskolin 5 mg/kg, rolipram 10 mg/kg, 30 minutes
Protocol: FVB/Tac females were dosed with either vehicle (1% DMSO) or drugs i.p., then 30 minutes later, blood samples were collected and assayed for cAMP by ELISA (Assay Designs, Ann Arbor, Mich., cat#900-163). The drugs used are as follows: 5 mg/kg forskolin (F) (Sigma F6886), 5 mg/kg water soluble forskolin (H20F) (Calbiochem 344273), 10 mg/kg rolipram (R) (Sigma R6520) or combinations of either forskolin plus rolipram (F/R). […] Forskolin increases cAMP levels by activating adencylate cyclase while inhibitors of PDE4, such as rolipram, raise plasma cAMP by preventing hydrolysis of cAMP. A combination of rolipram and water soluble forskolin increases cAMP levels in vivo 14 fold. This combination was used to provide a large window of induction for founder screening by bioimaging, a representative study is shown in FIG. 6.
FIG. 5B is a cAMP assay on plasma levels in wild-type mice following various treatment with forskolin (F), rolipram (R) or a combination of forskolin and rolipram (F/R). […]

Compound: CN(N=O)C(=O)N[C@H]1C(O)O[C@H](CO)[C@@H](O)[C@@H]1O (mixture of isomers) [STZ, streptozotocin]
- blood glucose levels (BG) [1]: increased
- luciferase induction by AVE0010 compared to vehicle group (beta-cell): decreased luciferase induction

- increase of luciferase (DP): 3 fold
- luciferase response of LPS stimulated microglia (DP1 receptor; line 64, 100 ng/ml LPS 2 hours): responsive
- luciferase response of unstimulated microglia (DP1 receptor; line 64, unstimulated): unresponsive
- luciferase versus DMSO only control (t-test) [2]: Statistically significant increases
Compound: O=C(O)CCCCCCC1C(=O)NC(=O)N1CCC(O)C1CCCCC1 (stereo not drawn) [BW245C]

- luciferase response of unstimulated microglia [3]: unresponsive
Compound: COc1ccc(C2CNC(=O)C2)cc1OC1CCCC1 (stereo not drawn) [rolipram]
- plasma cAMP levels (plasma cAMP [4]): significantly increase
- elevation of circulating cAMP levels vs vehicle (plasma cAMP [5]): statistically significance in their elevation
